Consider 31 compounds from PubChem BioAssay (NCI).

Several values for one entry are separate records, joined by “and”; a condition that tells them apart may be missing. Equal entries are not always repeated.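 Assay format: 96-well plates, 48-hour exposure. GI50 is the concentration that inhibits growth by half. The concentration for full growth arrest is given as TGI.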 Bounds are passed on as bounds.

Common to all, as to assay: DTP human tumour cell line panel, 48 h
Assay [1] deals with DU-145 prostate.
In assay [2] the test system is ACHN renal.
In assay [3] the test system is A549 NSCLC.
In assay [4] the test system is HL-60(TB) leukemia.
Assay [5] deals with UACC-62 melanoma.
The test system of assay [6] is SK-OV-3 ovarian.
Assay [7] has as its system OVCAR-3 ovarian.
Assay [8] relates to M14 melanoma.
Assay [9] deals with HS 578T breast.

Consider `Fc1ccc2c(c1)C1=C(CO2)C(c2ccc(Cl)cc2)NC(=S)N1` (centres undefined), for which the GI50 – broadly, the concentration giving 50% growth inhibition – is 28 µM in assay [1]; 37.4 µM in assay [2]; 33.2 µM in [3]; 31.6 µM in assay [4]; 18.4 µM in [5]; 68.8 µM in assay [6]. The GI50 in assay [7] was 14.7 µM; in [8], 24 µM. In addition, the TGI (usually the concentration at which net growth stops) in [1] is above 100 µM; in [2], above 100 µM; in [3], above 100 µM; in [4] it was above 100 µM; in assay [5] it was 63.7 µM; in [6] it was above 100 µM. Besides, the TGI in assay [7] is 49.5 µM; in assay [8], 57.5 µM.

Turning to `CC1CCCc2c1c1ccc3c(O)cccc3c1oc2=O` (centres undefined), the TGI was above 100 µM in assay [2]; above 100 µM in assay [3]; above 100 µM in [4]; above 100 µM in [5]; 61.6 µM in assay [6]; above 100 µM in [7]. Moreover, in assay [8], the TGI is above 100 µM.

Consider `O=C1c2ccccc2-c2c1c1ccc([N+](=O)[O-])cc1c(=O)n2CCCNCCO`, for which the GI50 in [9] is 1.11 µM; in assay [2], 0.0496 µM; in assay [3], 0.946 µM; in assay [4], 0.242 µM; in assay [5] it was 0.372 µM; in assay [6], 0.525 µM. The GI50 in assay [7] is 1.14 µM; in [8], 0.0904 µM. Further, the TGI in assay [9] amounted to 4.39 µM; in assay [2], 0.48 µM; in [3] it was 8.75 µM; in assay [4] it was 1.52 µM; in [5] it was 1.85 µM; in [6] it was 2.56 µM. Moreover, the concentration for total growth inhibition (TGI) turned out to be 2.78 µM in assay [7] and 1.4 µM in assay [8].

As to `CCOC(=O)C(C)(C)Oc1ccc2c(-c3ccc(Cl)cc3)c(-c3ccc(Cl)cc3)c(=O)oc2c1`, the TGI in assay [2], in assay [3], in assay [4], in [5], in [7] and in assay [8] was above 100 µM each time.

For the compound `CC1[C@@H]2CC=C3[C@H]4CCC5Cc6nc7c(nc6C[C@@]5(C)C4(O)CC(=O)[C@]32CO[C@]12OC(C)(C)CC2O)CC1CC[C@@H]2C3=C[C@H]4O[C@@]5(O[C@@](C)(CO)C[C@@H]5O)C(C)[C@@]4(O)[C@]3(C)[C@@H](O)CC2[C@]1(C)C7` (some centres undefined), the GI50 is 0.00257 µM in assay [2]; 0.000294 µM and 0.00121 µM in assay [3]; 0.00036 µM in assay [4]; 0.000142 µM and 0.000422 µM in assay [5]; 0.000461 µM and 0.00249 µM in assay [6]; 0.000135 µM in assay [8]. Also, the TGI in [2] is 0.381 µM; in [3], 0.223 µM and 1.12 µM; in [7], above 3.6 µM; in assay [8], 0.000363 µM.

For the compound `CS/C(c1ccccc1)=[N+](\[O-])Cc1ccccc1`, the TGI in assay [2], in assay [3], in assay [4], in assay [5], in assay [6] and in [7] was above 100 µM each time. In assay [8], this compound gave a TGI above 100 µM.

With `CC(=O)/C=C1\CC(=O)Nc2ccccc2N1`, the TGI in assay [2], in assay [3], in assay [4], in assay [5], in assay [6] and in assay [8] was above 100 µM each time.

Regarding `COc1ccc2c(CCNC(=O)/C=C/c3ccccc3)c(C(C)=O)[nH]c2c1[N+](=O)[O-]`, the TGI in assay [2] is above 100 µM; in assay [3], above 100 µM; in assay [4], above 100 µM; in assay [5], 36.1 µM; in assay [7], above 100 µM; in assay [8], above 100 µM.

Take `CC(=O)OC1CCC2C(=CCC3C2(C)C(=O)CC2(C)C(C4(C)OC(C(C)C)=CC4=O)C(O)CC32C)C1(C)C` (centres undefined): the TGI is above 100 µM in [2]; above 100 µM in assay [3]; 41.7 µM in assay [5]; above 100 µM in assay [6]; above 10 µM in [7]; 50.9 µM in [8].

Regarding `CCN(CC)c1ccc(N=C2C=C(Cl)C(=O)c3ncccc32)c(C)c1`, the TGI was 11.1 µM in assay [2]; 48.5 µM in assay [3]; 4.72 µM in assay [4]; 24.7 µM in assay [5]; 67.9 µM in assay [6]; 5.04 µM in [7]. Moreover, in assay [8], the TGI came out at 8.31 µM.

In the case of `O=C(Nc1ccc(Br)cc1)C(=O)C(C(=O)c1ccccc1F)C1OC(=O)c2ccccc21` (centres undefined), the TGI is above 100 µM in assay [2]; above 100 µM in assay [3]; 75.6 µM in assay [4]; 28.1 µM in [5]; above 100 µM in [6]; above 100 µM in [7]. This compound gave a TGI in [8] of 43.9 µM.

`CCOC(=O)c1ccc(N2C(=O)Cc3ccccc3C2=O)cc1`: the TGI in assay [2], in assay [3], in [5], in assay [6] and in assay [7] was above 100 µM each time.

Consider `OCC(O)C(O)C(O)c1nn(-c2ccccc2)c2nc3cc(Cl)c(Cl)cc3nc12` (centres undefined), for which the TGI in [2] was above 100 µM; in assay [3], above 100 µM; in assay [4], 91.2 µM; in [5], above 100 µM; in assay [6], above 100 µM; in assay [7], above 100 µM. Moreover, the TGI in assay [8] came out at 41.1 µM.

In the case of `O=C(NC1C2CC3CC(C2)CC1C3)/C(Cl)=C1/Sc2ccccc2NC1=O` (centres undefined), the TGI in assay [2], in assay [3], in assay [4], in assay [5], in assay [7] and in assay [8] was above 100 µM each time.

For `O=C(Nc1nc2ccc([N+](=O)[O-])cc2s1)C(=O)C(C(=O)c1ccncc1)C1OC(=O)c2ccccc21` (centres undefined), the TGI in [2], in assay [3], in assay [4], in assay [5], in [7] and in assay [8] was above 100 µM throughout.

Regarding `CC(C)C(=O)[O-].CC(C)C(=O)[O-].N.N.N.N.[Co+3].[O-][Cl+3]([O-])([O-])[O-]`, the GI50 in assay [2], in assay [3], in [4], in assay [5], in assay [6] and in assay [7] was above 100 µM throughout. Besides, the GI50 in [8] was above 100 µM. The TGI in assay [2], in assay [3], in [4], in assay [5], in assay [6] and in [7] was above 100 µM each time. This compound registered a total growth inhibition concentration (TGI) in assay [8] above 100 µM.

In the case of `CCOC(=O)N1C(c2ccccc2)C=CC(c2ccccc2)N1C(=O)OCC` (centres undefined), the TGI in assay [2], in assay [3], in [5] and in [7] was above 100 µM in each case.

With `COc1cc(/C=C\c2ccc(Br)cc2)cc(OC)c1OC`, the TGI in [2] is above 100 µM; in assay [3], above 100 µM; in assay [4] it was 0.0032 µM; in assay [5], above 100 µM; in assay [6], above 100 µM.

As for `C=C1CCCC2[C@](C)(CC3=C(O)C(=O)C=C(OC)C3=O)[C@@H](C)CC[C@]12C` (some centres undefined), the TGI in assay [2] was 47.7 µM; in assay [3], 11 µM; in assay [4], 9.59 µM; in assay [5] it was 6.63 µM; in assay [6], 62.2 µM; in [7] it was 31.3 µM. In [8], this compound displayed a TGI of 5.03 µM.

Turning to `O=C(N/C(=C\c1ccc(/C=C(\NC(=O)c2ccccc2)c2nc3ccccc3s2)cc1)c1nc2ccccc2s1)c1ccccc1`, the concentration for total growth inhibition (TGI) in [2] is 16.7 µM; in [3], 35.2 µM; in assay [4], 5.71 µM; in [5] it was 12 µM; in assay [7] it was 12.1 µM; in [8], 11.9 µM.

Consider `N#Cc1ccc(Oc2cccc(Oc3ccccc3)c2)cc1C#N`, for which the TGI in [2], in assay [3], in assay [4], in assay [5], in [6] and in assay [7] was above 100 µM in each case. This compound gave a TGI in assay [8] above 100 µM. For the same compound, the GI50 in assay [5], in assay [6] and in [8] was above 100 µM throughout.

In the case of `CC1(C(=O)O)CCOc2ccccc21` (centres undefined), the TGI in assay [2], in assay [3], in [4], in [5], in assay [7] and in assay [8] was above 100 µM in each case.

As for `COC12CCC(C(C(=O)c3ccccc3)=C1C(=O)c1ccccc1)C(O)C2` (centres undefined), the concentration for total growth inhibition (TGI) in assay [3], in [4], in assay [5], in [6], in [7] and in [8] was above 100 µM in each case.

`COc1nc2c(nc(N)n2C2OCC(O)C(O)C2O)c(=O)n1C` (centres undefined): the TGI in [2], in [3], in assay [4], in [5], in [6] and in [7] was above 100 µM throughout. The concentration for total growth inhibition (TGI) in assay [8] was above 100 µM.

With `O=C1C(=O)N(c2nccs2)C(=O)C(=O)C1c1nc2ccccc2s1`, the TGI in assay [2], in assay [3], in assay [5], in assay [6], in assay [7] and in assay [8] was above 100 µM throughout.

For the compound `CC(=O)[O-].[Zn].c1ccc(/C(=N\Nc2ccccn2)c2ccccn2)cc1`, the GI50 in assay [2] was 0.0241 µM; in assay [3], 0.447 µM; in assay [5] it was 0.0476 µM; in [6], 0.507 µM; in [8], 0.0468 µM. Moreover, the TGI in assay [2] was 5.03 µM; in [3], 5.48 µM; in assay [4], 0.0048 µM and 0.0138 µM; in [5], 0.67 µM and 1.17 µM; in [6] it was 2.79 µM; in assay [8], 1.43 µM.

On to `CCn1c(=O)c2ccccc2n2c(=O)c3cc4ccccc4cc3nc12`, for which the TGI in assay [2], in [3], in assay [4], in assay [5], in assay [6] and in assay [7] was above 100 µM each time. In addition, in assay [8], the TGI was above 100 µM.

For the compound `CCOC(=O)C1=C(Nc2ccc(Br)cc2)OC/C1=N\NC(=O)c1ccccc1O`, the total growth inhibition concentration (TGI) in assay [2] is above 100 µM; in assay [3] it was above 100 µM; in [4], 37.2 µM; in assay [5], 8.63 µM; in assay [6], above 67.7 µM; in assay [7], 77.7 µM. The same compound had a TGI in assay [8] above 100 µM.

In the case of `CN(C)CCCCn1ccc2c1C(=O)c1c(c(O)c3ccccc3c1O)C2=O`, the GI50 is 33.1 µM in assay [9]; 20.1 µM in assay [1]; 14.8 µM in assay [2]; 18.9 µM in [3]; 10.4 µM in [4]; 11.4 µM in [6]. In addition, the GI50 is 2.98 µM in [7] and 2.78 µM in assay [8]. For the same compound, the TGI in [9] was 60.9 µM; in assay [1] it was 41.9 µM; in assay [2], 27.9 µM; in assay [3] it was 36.8 µM; in assay [4], 23.4 µM; in assay [6], 24 µM. In addition, the TGI came out at 15.9 µM in [7] and 8.7 µM in [8].

For the compound `S=c1sc2cscc2s1`, the TGI in assay [2] amounted to 42.5 µM; in assay [3] it was 37.5 µM; in assay [4], 81.5 µM; in assay [5] it was 34 µM; in assay [6] it was 77.3 µM; in [7], 54.9 µM. In [8], the TGI was 39.9 µM.

On to `Cc1ccccc1C(=O)Oc1ccc(OCc2ccccc2)cc1`, for which the TGI in assay [2], in assay [3], in [4], in [5], in assay [6] and in [7] was above 100 µM in each case. For the same compound, in assay [8], the TGI is above 100 µM.
